How the values were obtained:
delta opioid receptor = biological target: T1, delta opioid receptor (Rattus norvegicus, UniProt P33533); test: Rat Brain Delta Opioid Receptor Binding Assay; details: rat forebrain membranes, ~4 nM [3H]DPDPE, 25° C., 2.5 h; read-out: δ-opioid binding (Ki)
T1 construct: from tissue; host or cells: rat forebrain homogenate (Wistar rat)
Procedure: (§1) Male, Wistar rats (150–250 g, VAF, Charles River, Kingston, N.Y.) are killed by cervical dislocation, and their brains removed and placed immediately in ice cold Tris HCl buffer (50 mM, pH 7.4). The forebrains are separated from the remainder of the brain by a coronal transection, beginning dorsally at the colliculi and passing ventrally through the midbrain-pontine junction. After dissection, the forebrains are homogenized in Tris buffer in a Teflon®-glass homogenizer. The homogenize is diluted to a concentration of 1 g of forebrain tissue per 80 mL Tris and centrifuged at 39,000×g for 10 min. The pellet is resuspended in the same volume of Tris buffer containing 5 mM MgCl2 with several brief pulses from a Polytron homogenizer. This particulate preparation is used for the delta opioid binding assays. Following incubation with the delta selective peptide ligand ˜4 nM [^3H]DPDPE at 25° C. for 2.5 h in a 96-well plate with total volume of 1 ml, the plate contents are filtered through Wallac filtermat B sheets on a Tomtec 96-well harvester. The filters are rinsed three times with 2 mL of 10 mM HEPES (pH7.4), and dried in a microwave oven 1:45 min twice. To each sample area 2×40 μl of Betaplate Scint scintillation fluid (LKB) is added and analyzed on a LKB (Wallac) 1205 BetaPlate liquid scintillation counter.
(§2) The data are used to calculate either the % inhibition compared to control binding (when only a single concentration of test compound is evaluated) or a Ki value (when a range of concentrations is tested). % inhibition is calculated as: [(total dpm-test compound dpm dpm)/(total dpm-nonspecific dpm)]*100. Kd and Ki values were calculated using GraphPad PRISM data analysis program.

mu opioid receptor = biological target: T2, mu opioid receptor (Rattus norvegicus, UniProt P33535); test: Rat Brain mu Opioid Receptor Binding Assay; details: rat forebrain membranes, ~0.8 nM [3H]DAMGO, 25° C., 2.5 h; read-out: μ-opioid binding (Ki)
T2 construct: from tissue; host or cells: rat forebrain homogenate (Wistar rat)
T2 sequence (P33535 whole entry): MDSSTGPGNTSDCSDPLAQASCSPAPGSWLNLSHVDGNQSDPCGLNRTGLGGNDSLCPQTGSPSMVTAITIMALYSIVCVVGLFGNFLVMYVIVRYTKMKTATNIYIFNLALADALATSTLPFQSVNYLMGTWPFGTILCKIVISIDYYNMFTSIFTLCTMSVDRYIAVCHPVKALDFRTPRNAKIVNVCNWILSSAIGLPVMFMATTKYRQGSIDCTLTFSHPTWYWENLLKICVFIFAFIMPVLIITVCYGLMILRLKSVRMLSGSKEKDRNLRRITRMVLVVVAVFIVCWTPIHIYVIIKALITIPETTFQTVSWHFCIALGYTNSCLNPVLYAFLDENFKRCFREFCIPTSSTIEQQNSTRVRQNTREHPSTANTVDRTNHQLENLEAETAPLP
Procedure: as §1, with “mu-opioid” for “delta opioid”, “mu” for “delta”, “˜0.8” for “˜4”, “[^3H]DAMGO” for “[^3H]DPDPE”, “total” for “total volume of”
as §2

T1 sequence (P33533 whole entry): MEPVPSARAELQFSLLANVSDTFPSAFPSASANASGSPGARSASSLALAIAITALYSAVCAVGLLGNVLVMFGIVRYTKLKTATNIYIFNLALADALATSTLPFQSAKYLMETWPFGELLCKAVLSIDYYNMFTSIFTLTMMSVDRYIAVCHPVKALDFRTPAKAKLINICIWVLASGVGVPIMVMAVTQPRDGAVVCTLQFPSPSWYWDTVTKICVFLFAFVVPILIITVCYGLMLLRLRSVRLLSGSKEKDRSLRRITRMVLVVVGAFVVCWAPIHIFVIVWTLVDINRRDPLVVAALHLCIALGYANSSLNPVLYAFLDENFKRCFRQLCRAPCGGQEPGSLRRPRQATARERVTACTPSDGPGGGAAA

SMILES | Ki (delta opioid receptor) [nM] | Ki (mu opioid receptor) [nM]
Cc1cc(C(N)=O)cc(C)c1CC(N)C(=O)N1CCCCC1c1nc(-c2ccccc2)c[nH]1 (centres unmarked) [Cmpd 6] | 13.9 | 0.13
COc1ccc(C[C@H](N)C(=O)N2Cc3ccccc3C[C@H]2c2nc(-c3ccccc3)c(C)[nH]2)cc1 [Cmpd 156] | 28 | 179
Cc1cc(O)cc(C)c1C[C@H](N)C(=O)N1Cc2ccccc2C[C@H]1c1nc(-c2ccccc2)c(Br)[nH]1 [Cmpd 132] | 0.1 | 0.17
CN[C@@H](Cc1c(C)cc(O)cc1C)C(=O)N1CCCC[C@H]1c1nc(-c2ccccc2)c[nH]1 [Cmpd 28] | 21.5 | 0.3
N[C@@H](Cc1ccc(S(N)(=O)=O)cc1)C(=O)N1CCCC[C@H]1c1nc(-c2ccccc2)c[nH]1 [Cmpd 5] | 6180 | 40.8
N[C@@H](Cc1ccc(S(N)(=O)=O)cc1)C(=O)N1Cc2ccccc2C[C@H]1c1nc(-c2ccccc2)c[nH]1 [Cmpd 104] | 174 | 592
Cc1[nH]c([C@@H]2Cc3ccccc3CN2C(=O)[C@@H](N)Cc2ccc([N+](=O)[O-])cc2)nc1-c1ccccc1 [Cmpd 120] | 674 | 1350
Nc1ccc(CC(N)C(=O)N2CCCCC2c2nc(-c3ccccc3)c[nH]2)cc1 (centres unmarked) [Cmpd 30] | 1020 | 57.2
NCc1ccc(C[C@H](N)C(=O)N2CCCC[C@H]2c2nc(-c3ccccc3)c[nH]2)cc1 [Cmpd 18] | 7520 | 409
Nc1cc(C[C@H](N)C(=O)N2CCCC[C@H]2c2nc(-c3ccccc3)c[nH]2)ccc1O [Cmpd 16] | 5330 | 115
Cc1[nH]c([C@@H]2Cc3ccccc3CN2C(=O)[C@@H](N)Cc2ccc(N)cc2)nc1-c1ccccc1 [Cmpd 142] | 93 | 857
N[C@@H](Cc1cccc(O)c1)C(=O)N1Cc2ccccc2C[C@H]1c1nc(-c2ccccc2)c[nH]1 [Cmpd 161] | 133 | 480
Cc1[nH]c([C@@H]2Cc3ccccc3CN2C(=O)[C@@H](N)Cc2ccc(F)cc2)nc1-c1ccccc1 [Cmpd 143] | 687 | 12800
CCN[C@@H](Cc1ccc(O)cc1)C(=O)N1Cc2ccccc2C[C@H]1c1nc(-c2ccccc2)c[nH]1 [Cmpd 137] | 3.89 | 368
N[C@@H](Cc1ccc(C(=O)O)cc1)C(=O)N1CCCC[C@H]1c1nc(-c2ccccc2)c[nH]1 [Cmpd 9] | 606 | 26.8
Cc1cc(O)cc(C)c1C[C@H](N)C(=O)N1Cc2ccccc2C[C@H]1c1nc(-c2ccccc2)c(C)[nH]1 [Cmpd 149] | 0.8 | 3
Cc1cc(O)cc(C)c1C[C@H](N)C(=O)N1CCCC[C@@H]1c1nc(-c2ccccc2)c[nH]1 [Cmpd 158] | 5.43 | 0.15
NC(Cc1ccc(C(=O)NCCO)cc1)C(=O)N1CCCCC1c1nc(-c2ccccc2)c[nH]1 (centres unmarked) [Cmpd 14] | 5140 | 9.3
CN[C@@H](Cc1ccc(O)cc1)C(=O)N1Cc2ccccc2C[C@H]1c1nc(-c2ccccc2)c(C)[nH]1 [Cmpd 157] | 0.57 | 30
Cc1cc(O)cc(C)c1C[C@H](N)C(=O)N1Cc2ccccc2C[C@H]1c1nc(-c2ccccc2)c(Cl)[nH]1 [Cmpd 133] | 0.12 | 0.18
Cc1cc(O)cc(C)c1CC(N)C(=O)N1Cc2ccccc2CC1c1nc(-c2ccccc2)c[nH]1 (centres unmarked) [Cmpd 131] | 0.09 | 0.3
N[C@@H](Cc1cc(F)c(O)c(F)c1)C(=O)N1CCCC[C@H]1c1nc(-c2ccccc2)c[nH]1 [Cmpd 24] | 5660 | 9.27
CCN[C@@H](Cc1ccc(O)cc1)C(=O)N1Cc2ccccc2C[C@@H]1c1nc(-c2ccccc2)c[nH]1 [Cmpd 136] | 116 | 229
N[C@@H](Cc1ccc(O)c([N+](=O)[O-])c1)C(=O)N1Cc2ccccc2C[C@H]1c1nc(-c2ccccc2)c[nH]1 [Cmpd 129] | 50000 | 25700
CNC(Cc1ccc(O)cc1)C(=O)N1Cc2ccccc2CC1c1nc(-c2ccccc2)c(C)[nH]1 (centres unmarked) [Cmpd 155] | 0.44 | 23.2

SMILES | Ki (delta opioid receptor) [nM] | Ki (mu opioid receptor) [nM]
CC(N)(Cc1ccc(O)cc1)C(=O)N1CCCCC1c1nc(-c2ccccc2)c[nH]1 (centres unmarked) [Cmpd 25] | 107 | 1.69
NC(Cc1ccc(C(=O)O)cc1)C(=O)N1Cc2ccccc2CC1c1nc(-c2ccccc2)c[nH]1 (centres unmarked) [Cmpd 106] | 5200 | 5780
N[C@@H](Cc1ccc(C(=O)Nc2ccccc2)cc1)C(=O)N1Cc2ccccc2C[C@H]1c1nc(-c2ccccc2)c[nH]1 [Cmpd 111] | 103 | 293
CC(=O)c1ccc(C[C@H](N)C(=O)N2Cc3ccccc3C[C@H]2c2nc(-c3ccccc3)c[nH]2)cc1 [Cmpd 110] | 30.4 | 413
C[C@](N)(Cc1ccc(OCc2ccccc2)cc1)C(=O)N1Cc2ccccc2C[C@H]1c1nc(-c2ccccc2)c[nH]1 [Cmpd 122] | 346 | 2520
N[C@@H](Cc1cc(F)c(O)c(F)c1)C(=O)N1Cc2ccccc2C[C@H]1c1nc(-c2ccccc2)c[nH]1 [Cmpd 109] | 12.6 | 167
CNC(=O)c1ccc(C[C@H](N)C(=O)N2Cc3ccccc3C[C@H]2c2nc(-c3ccccc3)c[nH]2)cc1 [Cmpd 117] | 1.61 | 23.6
N#Cc1cccc(C[C@H](N)C(=O)N2CCCC[C@H]2c2nc(-c3ccccc3)c[nH]2)c1 [Cmpd 8] | 10000 | 207
CCNC(=O)c1ccc(C[C@H](N)C(=O)N2CCCC[C@H]2c2nc(-c3ccccc3)c[nH]2)cc1 [Cmpd 1] | 20.9 | 0.15
CN1CCN(C(=O)c2ccc(C[C@H](N)C(=O)N3CCCC[C@H]3c3nc(-c4ccccc4)c[nH]3)cc2)CC1 [Cmpd 3] | 10000 | 10000
CNC(Cc1c(C)cc(OC)cc1C)C(=O)N1Cc2ccccc2CC1c1nc(-c2ccccc2)c[nH]1 (centres unmarked) [Cmpd 146] | 668 | 817
N#Cc1ccc(CC(N)C(=O)N2Cc3ccccc3CC2c2nc(-c3ccccc3)c[nH]2)cc1 (centres unmarked) [Cmpd 160] | 752 | 1340
CN[C@@H](Cc1c(C)cc(O)cc1C)C(=O)N1Cc2ccccc2C[C@H]1c1nc(-c2ccccc2)c[nH]1 [Cmpd 127] | 0.4 | 7.1
N[C@@H](Cc1cccc(O)c1)C(=O)N1CCCC[C@H]1c1nc(-c2ccccc2)c[nH]1 [Cmpd 22] | 433 | 16
CN(C)C(=O)c1ccc(C[C@H](N)C(=O)N2Cc3ccccc3C[C@H]2c2nc(-c3ccccc3)c[nH]2)cc1 [Cmpd 103] | 578 | 900
NC(=O)c1ccc(CC(N)C(=O)N2Cc3ccccc3CC2c2nc(-c3ccccc3)c[nH]2)cc1 (centres unmarked) [Cmpd 115] | 1.3 | 23.2
CC(=O)Nc1ccc(C[C@H](N)C(=O)N2Cc3ccccc3C[C@H]2c2nc(-c3ccccc3)c(C)[nH]2)cc1 [Cmpd 141] | 34 | 207
N[C@@H](Cc1ccc(Cl)cc1)C(=O)N1Cc2ccccc2C[C@H]1c1nc(-c2ccccc2)c[nH]1 [Cmpd 144] | 1130 | 5260
CN[C@@H](Cc1ccc(OC(=O)C(C)(C)C)cc1)C(=O)N1Cc2ccccc2C[C@H]1c1nc(-c2ccccc2)c[nH]1 [Cmpd 128] | 5.2 | 213
CC(N)(Cc1ccc(O)cc1)C(=O)N1Cc2ccccc2CC1c1nc(-c2ccccc2)c[nH]1 (centres unmarked) [Cmpd 121] | 1.32 | 38
CNC(Cc1ccc(O)cc1)C(=O)N1Cc2ccccc2CC1c1nc(-c2ccccc2)c[nH]1 (centres unmarked) [Cmpd 145] | 1.18 | 59.1
N[C@@H](Cc1ccc(O)cc1)C(=O)N1CCCC[C@H]1c1nc(-c2ccccc2)no1 [Cmpd 20] | 10000 | 231
Cc1cc(OC(=O)C(C)(C)C)cc(C)c1C[C@H](N)C(=O)N1Cc2ccccc2C[C@H]1c1nc(-c2ccccc2)c[nH]1 [Cmpd 116] | 3.5 | 9.6
N[C@@H](Cc1ccc(C(=O)Nc2ccccc2)cc1)C(=O)N1CCCC[C@H]1c1nc(-c2ccccc2)c[nH]1 [Cmpd 13] | 656 | 27.7
